Results: patent EP4786487A1, “PEPTIDE” (Peptidream Inc, priority 2023, dated 2025)
Read-outs that look alike come from different tables or passages of the source. Starred links: 1 amine or outer side, 2 acyl side, 3 side chain; linkers in the order of their positions; H or OH if unused. Positions of bridges follow the written chain, without caps; N, C: chain ends. Non-standard residues stand in square brackets, D forms with d. Residues, ends and D or L forms follow the SMILES beside them. *: point of attachment. X13 = O=C(O)c1ccc(-n2cc(C[C@H](N[*:1])C(=O)[*:2])c3ccccc32)cc1; X6 = CS(=O)(=O)c1ccc(-c2ccc(C[C@H](N[*:1])C(=O)[*:2])cc2)cc1; Phe(3-OCH2COOH) = N[C@@H](Cc1cccc(OCC(=O)O)c1)C(=O)O; Piperidine(4-CH2CH2CONH2) = NC(=O)CCC1CCN(*)CC1; Trp(6-OH) = N[C@@H](Cc1c[nH]c2cc(O)ccc12)C(=O)O; Phe(4-COOH) = N[C@@H](Cc1ccc(C(=O)O)cc1)C(=O)O; Trp(6-aza) = N[C@@H](Cc1c[nH]c2cnccc12)C(=O)O; Piperazinyl(4-CH2COOH) = O=C(O)CN1CCN(*)CC1; Piperidinyl(4-CH2COOH) = O=C(O)CC1CCN(*)CC1; Gly(decyl) = CCCCCCCCCC[C@H](N)C(=O)O; Gly(N(CH2)3COOH) = O=C(O)CCCNCC(=O)O; X1 = CCCCCCC[C@H](N[*:1])C(=O)[*:2]; NMeF = CN[C@@H](Cc1ccccc1)C(=O)O; NMeE = CN[C@@H](CCC(=O)O)C(=O)O; NMeA = CN[C@@H](C)C(=O)O; NEtG = CCNCC(=O)O; Sar = CNCC(=O)O

Tests used:
Assay type in all cases: cell-based
[1] = tested on: Myostatin; assay: Reporter gene assay for myostatin signaling in HepG2 cell line, Evaluation Procedure (1), myostatin inhibition; settings: GDF-11 IC50 versus Myostatin IC50
Procedure, shortened: (§1)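 HepG2 cells transfected with pGL3(CAGA)12-luciferase reporter, serum-starved in 0.1% BSA medium, then stimulated with myostatin or GDF-11 plus 4-fold peptide dilutions (0.006–100 nmol/L for myostatin, 0.12–2000 nmol/L for GDF-11) for 20–24 h at 37 °C. Luminescence read with One-Glo; IC50 calculated.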

[2] = target: T1, Myostatin (Homo sapiens, UniProt O14793); assay: as above; settings: read-out: IC50 (Luciferase) Myostatin HepG2
T1 construct: active myostatin (also called mature myostatin) is a homodimer consisting of two C-terminal growth factor domains; purchased R&D systems 788-G8/CF
T1 sequence (O14793 267-375): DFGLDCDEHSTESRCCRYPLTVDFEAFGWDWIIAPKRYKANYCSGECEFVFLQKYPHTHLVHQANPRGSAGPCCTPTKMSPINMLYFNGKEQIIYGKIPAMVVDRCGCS
Procedure, shortened: as §1

[3] = target: T2, GDF-11 (Homo sapiens, UniProt O95390); assay: Reporter gene assay for myostatin signaling in HepG2 cell line, Evaluation Procedure (1), GDF-11 inhibition; settings: read-out: IC50 (Luciferase) GDF-11 HepG2
T2 construct: purchased R&D systems 1958-GD-G8/CF
T2 sequence (O95390 299-407): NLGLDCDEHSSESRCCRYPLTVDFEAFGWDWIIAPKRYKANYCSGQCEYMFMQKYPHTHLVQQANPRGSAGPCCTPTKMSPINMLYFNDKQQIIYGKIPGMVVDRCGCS
Procedure, shortened: as §1

SMILES | Selectivity ([1]; Method B) | IC50 ([2]; Method B: Myostatin 1 ng/mL) [nM] | IC50 ([3]; Method B: GDF-11 1 ng/mL) [nM] | Selectivity ([1]; Method C) | IC50 ([2]; Method C: Myostatin 1.5 ng/mL) [nM] | IC50 ([3]; Method C: GDF-11 1 ng/mL) [nM] | Selectivity ([1]; Method D) | IC50 ([2]; Method D: Myostatin 1.5 ng/mL) [nM] | IC50 ([3]; Method D: GDF-11 1.5 ng/mL) [nM]
CCCCCCCCCC[C@@H]1NC(=O)[C@H](Cc2ccccc2)N(C)C(=O)[C@H](CCCNC(=N)N)NC(=O)[C@H](Cc2ccc(C(=O)O)cc2)NC(=O)[C@H](Cc2cccc(OCC(=O)O)c2)NC(=O)[C@H]2CCCN2C(=O)[C@H]([C@@H](C)CC)NC(=O)[C@H](Cc2ccccc2)N(C)C(=O)[C@H](Cc2ccc(O)cc2)NC(=O)[C@H](Cc2c[nH]c3cnccc23)NC(=O)[C@H](C)NC(=O)[C@H](C)NC(=O)CSC[C@H](C(=O)N2CCC(CC(=O)O)CC2)NC(=O)[C@H](Cc2ccccc2)N(C)C(=O)[C@H](CCC(=O)O)N(C)C1=O [Myostatin_99_v338] ({CH2CO}-AA[Trp(6-aza)]Y[NMeF]I[dP][Phe(3-OCH2COOH)][Phe(4-COOH)]R[NMeF][Gly(decyl)][NMeE][NMeF][dC]-{Piperidinyl(4-CH2COOH)}; thioether N-15) | 299.8 | 0.38 | 114 | – | – | – | – | – | –
CCCCCCCCCC[C@@H]1NC(=O)[C@H](Cc2ccccc2)N(C)C(=O)[C@H](CCCNC(=N)N)NC(=O)[C@H](Cc2ccc(C(=O)O)cc2)NC(=O)[C@H](Cc2cccc(OCC(=O)O)c2)NC(=O)CN(CC)C(=O)[C@H]([C@@H](C)CC)NC(=O)[C@H](Cc2ccccc2)N(C)C(=O)[C@H](Cc2ccc(O)cc2)NC(=O)[C@H](Cc2c[nH]c3cnccc23)NC(=O)[C@H](C)NC(=O)[C@H](C)NC(=O)CSC[C@H](C(=O)N2CCC(CC(=O)O)CC2)NC(=O)[C@H](Cc2ccccc2)N(C)C(=O)[C@H](CCC(=O)O)N(C)C1=O [Myostatin_99_v339] ({CH2CO}-AA[Trp(6-aza)]Y[NMeF]I[NEtG][Phe(3-OCH2COOH)][Phe(4-COOH)]R[NMeF][Gly(decyl)][NMeE][NMeF][dC]-{Piperidinyl(4-CH2COOH)}; thioether N-15) | 144.7 | 0.89 | 128 | – | – | – | – | – | –
CCCCCCCCCC[C@@H]1NC(=O)[C@H](Cc2ccccc2)N(C)C(=O)[C@H](CCCNC(=N)N)NC(=O)[C@H](Cc2ccc(C(=O)O)cc2)NC(=O)[C@H](Cc2cccc(OCC(=O)O)c2)NC(=O)CN(C)C(=O)[C@H]([C@@H](C)OC)NC(=O)[C@H](Cc2ccccc2)N(C)C(=O)[C@H](Cc2ccc(O)cc2)NC(=O)[C@H](Cc2c[nH]c3cnccc23)NC(=O)[C@H](C)NC(=O)[C@H](C)NC(=O)CSC[C@H](C(=O)N2CCC(CC(=O)O)CC2)NC(=O)[C@H](Cc2ccccc2)N(C)C(=O)[C@H](CCC(=O)O)N(C)C1=O [Myostatin_99_v341] ({CH2CO}-AA[Trp(6-aza)]Y[NMeF]T(Me)[Sar][Phe(3-OCH2COOH)][Phe(4-COOH)]R[NMeF][Gly(decyl)][NMeE][NMeF][dC]-{Piperidinyl(4-CH2COOH)}; thioether N-15) | 173.9 | 0.76 | 132 | – | – | – | – | – | –
CCCCCCCCCC[C@@H]1NC(=O)[C@H](Cc2ccccc2)N(C)C(=O)[C@H](CCCNC(=N)N)NC(=O)[C@H](Cc2ccc(C(=O)O)cc2)NC(=O)[C@H](Cc2cccc(OCC(=O)O)c2)NC(=O)[C@H]2CCCN2C(=O)[C@H]([C@@H](C)CC)NC(=O)[C@H](Cc2ccccc2)N(C)C(=O)[C@H](Cc2ccc(O)cc2)NC(=O)[C@H](Cc2ccc(-c3ccc(S(C)(=O)=O)cc3)cc2)NC(=O)[C@H](C)NC(=O)[C@H](C)NC(=O)CSC[C@H](C(=O)N2CCN(CC(=O)O)CC2)NC(=O)[C@H](Cc2ccccc2)N(C)C(=O)[C@H](CCC(=O)O)N(C)C1=O [Myostatin_99_v343] ({CH2CO}-AA[X6]Y[NMeF]I[dP][Phe(3-OCH2COOH)][Phe(4-COOH)]R[NMeF][Gly(decyl)][NMeE][NMeF][dC]-{Piperazinyl(4-CH2COOH)}; thioether N-15) | – | – | – | 137.1 | 0.1 | 14.3 | – | – | –
CCCCCCCCCC[C@@H]1NC(=O)[C@H](Cc2ccccc2)N(C)C(=O)[C@H](CCCNC(=N)N)NC(=O)[C@H](Cc2ccc(C(=O)O)cc2)NC(=O)[C@H](Cc2cccc(OCC(=O)O)c2)NC(=O)[C@H]2CCCN2C(=O)[C@H]([C@@H](C)CC)NC(=O)[C@H](Cc2ccccc2)N(C)C(=O)[C@H](Cc2ccc(O)cc2)NC(=O)[C@H](Cc2c[nH]c3ccccc23)NC(=O)[C@H](C)NC(=O)[C@H](C)NC(=O)CSC[C@H](C(=O)N2CCC(CCC(N)=O)CC2)NC(=O)[C@H](Cc2ccccc2)N(C)C(=O)[C@H](CCC(=O)O)N(C)C1=O [Myostatin_99_v344] ({CH2CO}-AAWY[NMeF]I[dP][Phe(3-OCH2COOH)][Phe(4-COOH)]R[NMeF][Gly(decyl)][NMeE][NMeF][dC]-{Piperidine(4-CH2CH2CONH2)}; thioether N-15) | – | – | – | 812.6 | 0.08 | 62.3 | – | – | –
CCCCCCCCCC[C@@H]1NC(=O)[C@H](Cc2ccccc2)N(C)C(=O)[C@H](CCCNC(=N)N)NC(=O)[C@H](Cc2ccc(C(=O)O)cc2)NC(=O)[C@H](Cc2cccc(OCC(=O)O)c2)NC(=O)CN(C)C(=O)[C@H]([C@@H](C)CC)NC(=O)[C@H](Cc2ccccc2)N(C)C(=O)[C@H](Cc2ccc(O)cc2)NC(=O)[C@H](Cc2c[nH]c3ccccc23)NC(=O)[C@H](C)NC(=O)[C@H](C)NC(=O)CSC[C@H](C(=O)N2CCC(CCC(N)=O)CC2)NC(=O)[C@H](Cc2ccccc2)N(C)C(=O)[C@H](CCC(=O)O)N(C)C1=O [Myostatin_99_v346] ({CH2CO}-AAWY[NMeF]I[Sar][Phe(3-OCH2COOH)][Phe(4-COOH)]R[NMeF][Gly(decyl)][NMeE][NMeF][dC]-{Piperidine(4-CH2CH2CONH2)}; thioether N-15) | – | – | – | 116.0 | 0.09 | 10.5 | – | – | –
CCCCCCC[C@@H]1NC(=O)[C@H](Cc2ccccc2)N(C)C(=O)[C@H](CCCNC(=N)N)NC(=O)[C@H](Cc2ccc(C(=O)O)cc2)NC(=O)[C@H](Cc2cccc(OCC(=O)O)c2)NC(=O)[C@H](C)N(C)C(=O)[C@H]([C@@H](C)CC)NC(=O)[C@H](Cc2ccccc2)N(C)C(=O)[C@H](Cc2ccc(O)cc2)NC(=O)[C@H](Cc2cn(-c3ccc(C(=O)O)cc3)c3ccccc23)NC(=O)[C@H](C)NC(=O)CN(CCCC(=O)O)C(=O)CSC[C@H](C(=O)O)NC(=O)[C@H](Cc2ccccc2)N(C)C(=O)[C@H](C)N(C)C1=O [Myostatin_99_v372] ({CH2CO}-[Gly(N(CH2)3COOH)]A[X13]Y[NMeF]I[NMeA][Phe(3-OCH2COOH)][Phe(4-COOH)]R[NMeF][X1][NMeA][NMeF][dC]-OH; thioether N-15) | – | – | – | – | – | – | 76.611 | 0.09 | 7.08
CCCCCCCCCC[C@@H]1NC(=O)[C@H](Cc2ccccc2)N(C)C(=O)[C@H](CCCNC(=N)N)NC(=O)[C@H](Cc2ccc(C(=O)O)cc2)NC(=O)[C@H](Cc2cccc(OCC(=O)O)c2)NC(=O)[C@H]2CCCN2C(=O)[C@H]([C@@H](C)CC)NC(=O)[C@H](Cc2ccccc2)N(C)C(=O)[C@H](Cc2ccc(O)cc2)NC(=O)[C@H](Cc2c[nH]c3cc(O)ccc23)NC(=O)[C@H](C)NC(=O)[C@H](C)NC(=O)CSC[C@H](C(=O)N2CCC(CCC(N)=O)CC2)NC(=O)[C@H](Cc2ccccc2)N(C)C(=O)[C@H](CCC(=O)O)N(C)C1=O [Myostatin_99_v382] ({CH2CO}-AA[Trp(6-OH)]Y[NMeF]I[dP][Phe(3-OCH2COOH)][Phe(4-COOH)]R[NMeF][Gly(decyl)][NMeE][NMeF][dC]-{Piperidine(4-CH2CH2CONH2)}; thioether N-15) | – | – | – | – | – | – | 711.775 | 0.04 | 29.6
CCCCCCCCCC[C@@H]1NC(=O)[C@H](Cc2ccccc2)N(C)C(=O)[C@H](CCCNC(=N)N)NC(=O)[C@H](Cc2ccc(C(=O)O)cc2)NC(=O)[C@H](Cc2cccc(OCC(=O)O)c2)NC(=O)CN(CC)C(=O)[C@H]([C@@H](C)CC)NC(=O)[C@H](Cc2ccccc2)N(C)C(=O)[C@H](Cc2ccc(O)cc2)NC(=O)[C@H](Cc2c[nH]c3cc(O)ccc23)NC(=O)[C@H](C)NC(=O)[C@H](C)NC(=O)CSC[C@H](C(=O)N2CCC(CCC(N)=O)CC2)NC(=O)[C@H](Cc2ccccc2)N(C)C(=O)[C@H](CCC(=O)O)N(C)C1=O [Myostatin_99_v383] ({CH2CO}-AA[Trp(6-OH)]Y[NMeF]I[NEtG][Phe(3-OCH2COOH)][Phe(4-COOH)]R[NMeF][Gly(decyl)][NMeE][NMeF][dC]-{Piperidine(4-CH2CH2CONH2)}; thioether N-15) | – | – | – | – | – | – | 220.797 | 0.18 | 40.5
CCCCCCCCCC[C@@H]1NC(=O)[C@H](Cc2ccccc2)N(C)C(=O)[C@H](CCCNC(=N)N)NC(=O)[C@H](Cc2ccc(C(=O)O)cc2)NC(=O)[C@H](Cc2cccc(OCC(=O)O)c2)NC(=O)[C@H]2CCCN2C(=O)[C@H]([C@@H](C)CC)NC(=O)[C@H](Cc2ccccc2)N(C)C(=O)[C@H](Cc2ccc(O)cc2)NC(=O)[C@H](Cc2c[nH]c3cc(O)ccc23)NC(=O)[C@H](C)NC(=O)[C@H](C)NC(=O)CSC[C@H](C(=O)N2CCN(CC(=O)O)CC2)NC(=O)[C@H](Cc2ccccc2)N(C)C(=O)[C@H](CCC(=O)O)N(C)C1=O [Myostatin_99_v384] ({CH2CO}-AA[Trp(6-OH)]Y[NMeF]I[dP][Phe(3-OCH2COOH)][Phe(4-COOH)]R[NMeF][Gly(decyl)][NMeE][NMeF][dC]-{Piperazinyl(4-CH2COOH)}; thioether N-15) | – | – | – | – | – | – | 805.658 | 0.04 | 32.8
